Among the test systems are MCF7 breast; A549 NSCLC; SNB-19 CNS; UACC-62 melanoma; HL-60(TB) leukemia; OVCAR-8 ovarian; HCC-2998 colon; NCI-H23 lung; A498 renal; SW-620 colon.
Holding throughout (assay): NCI-60 cell line screen, 48 h

Structures are written as SMILES.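 Exposure lasted 48 hours, with cells grown in 96-well plates and compounds tested at five concentrations. Abbreviation: GI50, concentration required for 50% inhibition of growth. The concentration for full growth arrest is given as TGI.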

Experimental findings from PubChem BioAssay (NCI) are described below.

As to `CCn1cc(/C=C2\Oc3cc(OCC#N)ccc3C2=O)c2cc(OC)ccc21`, the GI50 with MCF7 breast is 0.209 µM; with A549 NSCLC, 2.48 µM; in the test on SNB-19 CNS, 0.385 µM; in the test with UACC-62 melanoma, 0.171 µM; with HL-60(TB) leukemia, 0.0872 µM; in the test with OVCAR-8 ovarian, 0.53 µM. In addition, the GI50 in the test on HCC-2998 colon was 1.86 µM; in the test with NCI-H23 lung, 0.553 µM; with A498 renal it was 10.3 µM; in the test with SW-620 colon, 0.131 µM. In addition, the TGI in the test with MCF7 breast is more than 100 µM; in the test on A549 NSCLC, more than 100 µM; in the test with SNB-19 CNS, more than 69.2 µM; in the test on UACC-62 melanoma it was more than 53.4 µM; in the test with HL-60(TB) leukemia, 0.903 µM; with OVCAR-8 ovarian it was more than 100 µM. Besides, the TGI in the test with HCC-2998 colon was more than 100 µM; with NCI-H23 lung, more than 80.8 µM; in the test with A498 renal it was more than 100 µM; in the test with SW-620 colon it was more than 100 µM.
Turning to `CCSc1ccc([C@@H]2[C@@H](O)C(=O)N2c2cc(OC)c(OC)c(OC)c2)cc1`, the GI50 in the test with MCF7 breast is less than 0.01 µM; in the test on A549 NSCLC it was less than 0.0159 µM; in the test on SNB-19 CNS it was less than 0.01 µM; in the test on UACC-62 melanoma, less than 0.01 µM; in the test with HL-60(TB) leukemia, less than 0.0134 µM; in the test with OVCAR-8 ovarian, 0.0211 µM. The GI50 in the test on HCC-2998 colon was 0.0489 µM; with NCI-H23 lung, 0.0456 µM; in the test on A498 renal it was less than 0.01 µM; in the test on SW-620 colon, less than 0.0121 µM. Also, the TGI with MCF7 breast was 15.7 µM; in the test with A549 NSCLC, 80.6 µM; in the test with SNB-19 CNS, more than 100 µM; in the test with UACC-62 melanoma, 20.1 µM; with HL-60(TB) leukemia it was 0.0367 µM; with OVCAR-8 ovarian it was 16.8 µM. Also, the TGI is 17.4 µM in the test with HCC-2998 colon, 61 µM in the test with NCI-H23 lung, 0.829 µM with A498 renal and more than 100 µM in the test on SW-620 colon.
Take `Cn1c(=O)n(C)c2cc(CNCCNc3ccnc4cc(Cl)ccc34)ccc21`: the GI50 is 28.6 µM with MCF7 breast; 50.3 µM in the test with A549 NSCLC; 27.9 µM in the test on SNB-19 CNS; 17.7 µM in the test with UACC-62 melanoma; 25.1 µM in the test on HL-60(TB) leukemia; 38.2 µM in the test on OVCAR-8 ovarian. Besides, the GI50 is 20.2 µM in the test on HCC-2998 colon, 48.8 µM with NCI-H23 lung, 1.57 µM in the test on A498 renal and 34.6 µM in the test with SW-620 colon. The TGI was more than 100 µM in the test with MCF7 breast; more than 100 µM in the test on A549 NSCLC; more than 100 µM with SNB-19 CNS; 35.6 µM in the test on UACC-62 melanoma; 91.2 µM in the test with HL-60(TB) leukemia; more than 100 µM with OVCAR-8 ovarian. Further, the TGI is 52.9 µM in the test with HCC-2998 colon, more than 100 µM in the test with NCI-H23 lung, 27 µM in the test with A498 renal and more than 100 µM with SW-620 colon.
With `CC(C)(C)[Si](C)(C)OC1[C@@H](CNC(N)=O)O[C@@H](n2cnc3c(NC(=O)Nc4ccccc4)ncnc32)[C@H]1O[Si](C)(C)C(C)(C)C` (stereo not given in full), the GI50 is 1.83 µM in the test with MCF7 breast; 1.98 µM with A549 NSCLC; 5.7 µM in the test on SNB-19 CNS; 6.19 µM in the test with UACC-62 melanoma; 1.01 µM in the test on HL-60(TB) leukemia; 1.77 µM in the test on OVCAR-8 ovarian. The GI50 in the test with HCC-2998 colon was 1.6 µM; with NCI-H23 lung, 1.9 µM; in the test with A498 renal it was 1.56 µM; with SW-620 colon, 0.981 µM. Further, the TGI with MCF7 breast came out at 8.51 µM; in the test on A549 NSCLC it was 7.82 µM; with SNB-19 CNS it was 12.4 µM; in the test with UACC-62 melanoma, 12.6 µM; in the test with HL-60(TB) leukemia, 2.12 µM; in the test on OVCAR-8 ovarian, 7.32 µM. Also, the TGI is 6.18 µM in the test on HCC-2998 colon, 7.83 µM in the test with NCI-H23 lung, 8.04 µM with A498 renal and 1.87 µM in the test with SW-620 colon.
For the molecule `O=C1/C(=C\c2ccco2)Oc2ccccc21`, the TGI with MCF7 breast, in the test on A549 NSCLC, in the test on SNB-19 CNS, with UACC-62 melanoma, in the test with HL-60(TB) leukemia and in the test on OVCAR-8 ovarian was more than 100 µM each time. Also, the TGI in the test on HCC-2998 colon, in the test on NCI-H23 lung, in the test on A498 renal and with SW-620 colon was more than 100 µM each time.
Turning to `O=[N+]([O-])c1cc([As](Br)c2ccc(O)c([N+](=O)[O-])c2)ccc1O`, the TGI is more than 20.8 µM with MCF7 breast; 7.02 µM with A549 NSCLC; 3.72 µM in the test with SNB-19 CNS; 3 µM with UACC-62 melanoma; 4.63 µM with HL-60(TB) leukemia; 3.21 µM with OVCAR-8 ovarian. In addition, the TGI in the test on HCC-2998 colon turned out to be 2.72 µM; in the test on NCI-H23 lung it was 4.37 µM; in the test on A498 renal, 3.74 µM; in the test with SW-620 colon, 3.56 µM.
In the case of `COc1ccc(C2=NC(=O)NC2c2ccc(OC)cc2)cc1` (stereo not given), the GI50 was 4.34 µM in the test on MCF7 breast; 11.8 µM with A549 NSCLC; 16.9 µM in the test with SNB-19 CNS; 4.15 µM in the test on UACC-62 melanoma; 2.2 µM with HL-60(TB) leukemia; 29.6 µM in the test with OVCAR-8 ovarian. Also, the GI50 in the test with HCC-2998 colon is 13 µM; in the test with NCI-H23 lung it was 12.9 µM; in the test with A498 renal, 4.49 µM; in the test with SW-620 colon it was 4.65 µM. In addition, the TGI is more than 100 µM in the test on MCF7 breast; more than 100 µM with A549 NSCLC; more than 100 µM in the test with SNB-19 CNS; 32.7 µM with UACC-62 melanoma; 15.6 µM with HL-60(TB) leukemia; more than 100 µM in the test on OVCAR-8 ovarian. The TGI in the test on HCC-2998 colon is 33.6 µM; with NCI-H23 lung, 78.3 µM; in the test with A498 renal, 29.1 µM; with SW-620 colon, more than 100 µM.
In the case of `COc1cc(OC)c2sc(-c3ccc(-n4cncc4-c4ccc(OC)c(OC)c4)cc3)nc2c1`, the GI50 with MCF7 breast was 5.37 µM; in the test with A549 NSCLC, 41.8 µM; in the test with SNB-19 CNS, more than 100 µM; in the test on UACC-62 melanoma it was 8.14 µM; in the test with HL-60(TB) leukemia, 3.09 µM; in the test with OVCAR-8 ovarian, 21.2 µM. The GI50 is more than 100 µM with HCC-2998 colon, more than 100 µM in the test with NCI-H23 lung, 2.15 µM in the test on A498 renal and more than 100 µM with SW-620 colon. Moreover, the TGI with MCF7 breast, in the test with A549 NSCLC, in the test on SNB-19 CNS, in the test with UACC-62 melanoma, with HL-60(TB) leukemia and in the test on OVCAR-8 ovarian was more than 100 µM each time. Further, the TGI in the test on HCC-2998 colon, in the test on NCI-H23 lung, with A498 renal and in the test with SW-620 colon was more than 100 µM throughout.
